# Test results: patent publication US20260125371A1, “METHOD FOR INHIBITING CLOSTRIDIOIDES DIFFICILE SPORE GERMINATION” (UNIVERSITY OF NOTRE DAME DU LAC, priority 2022, published 2026)
# What was measured:
# MRSA = settings: cited from earlier work
# [1] = tested on: extended panel of Gram-positive bacteria; test: MIC range over extended panel of Gram-positive bacteria; type: cell-based; settings: other than C. difficile
# [2] = tested on: Lactobacillus gasseri HM-644; test: MIC against Lactobacillus gasseri (gut bacteria); type: cell-based; settings: HM644
# [3] = tested on: Lactobacillus reuteri HM-102; test: MIC against Lactobacillus reuteri (gut bacteria); type: cell-based; settings: Limosilactobacillus reuteri, HM102
# S. oralis ATCC 9811 = test: MIC against S. oralis; type: cell-based; settings: Streptococcus oralis, ATCC9811
compound,measurement,setting,value
FC(F)(F)c1ccc(Oc2ccc(-c3noc(-c4ccc5[nH]ccc5c4)n3)cc2)cc1 [Compound 1],efficacy in mouse models of MRSA infection,MRSA,efficacious
"O=[N+]([O-])c1cnc(-c2nc(-c3ccc(OC4CCCC4)cc3)no2)[nH]1 [Compound 57, 3-(4-(Cyclopentyloxy)phenyl)-5-(4-nitro-1H-imidazol-2-yl)-1,2,4-oxadiazole]",activity against Gram-positive bacteria,[1],not active
same,MIC,[2],> 128 µg/mL
same,MIC,[3],> 128 µg/mL
"CCc1c(Cl)c(O)c(Cl)c(O)c1C(=O)O[C@H]1[C@H](O)[C@H](OC)[C@H](OC/C2=C\C=C\C[C@H](O)/C(C)=C/[C@H](CC)[C@@H](O[C@@H]3OC(C)(C)[C@@H](OC(=O)C(C)C)[C@H](O)[C@@H]3O)/C(C)=C/C(C)=C/C[C@@H]([C@@H](C)O)OC2=O)O[C@@H]1C [FDX, fidaxomicin]",MIC,S. oralis ATCC 9811,32 µg/mL
